Structures are written as SMILES. Some results are limits rather than exact numbers.

In the first test the test system is AEA cellular uptake (U937 cells). Description: [3H]-AEA cellular uptake inhibition in U937 cells. In kind it is cell-based. Particulars: Homo sapiens, U-937, U937 cells, final 100 nM AEA with 0.5 nM [3H]-AEA, 15 min at 37° C.; read-out: AEA uptake IC50. How it is done:
[^3H]-AEA Cellular Uptake
Screening for AEA cellular uptake inhibition was performed in a semi-automated procedure: Pipetting and washing steps were performed by a Biomek3000 laboratory workstation. First, required amounts of U937 cells were centrifuged at 100×g for 5 min and resuspended in RPMI (37° C.) to a final concentration of 2×10^6 cells/mL. Then, 250 μL of cell suspension (0.5×10^6 cells per sample) were transferred into AquaSil™ silanized glass vials (Chromacol 1.1-MTV) in 96-well format. After addition of 5 μL vehicle (DMSO) or compounds the cells were incubated at 37° C. for 15 min. As positive controls OMDM-2 and UCM707 were used at 10 μM in each run. The ETI-T compounds were measured at up to 7 concentrations in triplicates from 100 pM-100 μM. After pre-incubation, a mixture of 0.5 nM [ethanolamine-1-^3H]-AEA, (60 Ci/mmol) and 99.5 nM of cold AEA (final 100 nM) was added and samples were incubated at 37° C. for another 15 min. The reaction was stopped by rapid filtration over UniFilter-96 GF/C filters (PerkinElmer) pre-soaked with PBS 0.25% BSA. Cells were washed three times with 100 μL ice-cold PBS buffer containing 1% fatty acid free BSA. After drying, 45 μL MicroScint 20 scintillation cocktail (PerkinElmer, Waltham, Mass., US) was added to the wells and the plate was sealed. Radioactivity was measured by liquid scintillation counting on a PerkinElmer Wallac Trilux MicroBeta 1450 during 2 min. Non-specific binding of [^3H]AEA (100 nM) to the glass vials was never higher than 10%. IC50 values were calculated by GraphPad® by non-linear regression using the built-in log(inhibitor) vs. response-variable slope (four parameters) function.
One may read the IC50 as the concentration at which inhibition is half-maximal. Consider `O=C1/C(=C/c2ccc(CO)cc2)S/C(=N\Cc2ccccc2)N1Cc1ccccc1` [22_C_C, (2Z,5Z)-5-(4-(hydroxymethyl)benzylidene)-3-benzyl-2-(benzylimino)thiazolidin-4-one], for which the IC50 was 10400 nM.
With `O=C1/C(=C/c2ccc(CO)cc2)S/C(=N\CCc2ccccc2)N1c1ccccc1` [22_U_N, (2Z,5Z)-5-(4-(hydroxymethyl)benzylidene)-2-(phenethylimino)-3-phenylthiazolidin-4-one], the IC50 came to 812 nM.
As to `Cc1ccc(/N=C2\S/C(=C\c3ccc4[nH]cnc4c3)C(=O)N2c2ccccc2)nc1` [04_D_N, (2Z,5Z)-5-((1H-benzo[d]imidazol-5-yl)methylene)-2-(5-methylpyridin-2-ylimino)-3-phenylthiazolidin-4-one], the IC50 came out at 1590 nM.
Same read-out and setting: the figure for `O=C1/C(=C/c2ccc3[nH]ccc3c2)S/C(=N\c2ccccc2)N1CCCc1ccccc1` [03_N_K, (2Z,5Z)-5-((1H-indol-5-yl)methylene)-2-(phenylimino)-3-(3-phenylpropyl)thiazolidin-4-one] is 564 nM.
Consider `O=C1/C(=C/c2ccc3[nH]cnc3c2)S/C(=N\c2ccccc2)N1CCCc1ccccc1` [04_N_K, (2Z,5Z)-5-((1H-benzo[d]imidazol-5-yl)methylene)-2-(phenylimino)-3-(3-phenylpropyl)thiazolidin-4-one], for which the IC50 stood at 727 nM.
Same read-out and setting: the result for `COc1ccc(N2C(=O)/C(=C/c3ccc(CO)cc3)S/C2=N\c2ccccc2)cc1` [22_N_F, (2Z,5Z)-5-(4-(hydroxymethyl)benzylidene)-3-(4-methoxyphenyl)-2-(phenylimino)thiazolidin-4-one] reads > 10000 nM; that for `O=C1/C(=C/c2ccc3[nH]ccc3c2)S/C(=N\Cc2ccccc2)N1CCc1ccccc1` [03_C_O, (2Z,5Z)-5-((1H-indol-5-yl)methylene)-2-(benzylimino)-3-phenethylthiazolidin-4-one], 727 nM.
Still for that read-out and setting: the result for `Cc1ccc(/N=C2\S/C(=C\c3ccc4c(c3)OCCO4)C(=O)N2c2ccc(F)cc2)cc1` [24_A_B, (2Z,5Z)-5-(2,3-dihydro-1,4-benzodioxin-6-ylmethylene)-3-(4-fluorophenyl)-2-(p-tolylimino)thiazolidin-4-one] reads 138 nM; that for `CC(C)CN1C(=O)/C(=C/c2ccc3[nH]cnc3c2)S/C1=N\c1ccc(F)cc1` [04_B_X, (2Z,5Z)-5-((1H-benzo[d]imidazol-5-yl)methylene)-2-(4-fluorophenylimino)-3-isobutylthiazolidin-4-one], 578 nM.
Same read-out and setting: the figure for `CCCCN1C(=O)/C(=C/c2ccccc2)S/C1=N\Cc1ccccc1` [23_C_G, (2Z,5Z)-5-benzylidene-2-(benzylimino)-3-butylthiazolidin-4-one] is 753 nM.
Turning to `O=C1/C(=C/c2ccc3[nH]ccc3c2)S/C(=N\Cc2ccccc2)N1CCCc1ccccc1` [03_C_K, (2Z,5Z)-5-((1H-indol-5-yl)methylene)-2-(benzylimino)-3-(3-phenylpropyl)thiazolidin-4-one], the IC50 stood at 564 nM.
Same read-out and setting: the figure for `CCCCN1C(=O)/C(=C/c2ccc(CO)cc2)S/C1=N\c1ccccc1` [22_N_G, (2Z,5Z)-5-(4-(hydroxymethyl)benzylidene)-3-butyl-2-(phenylimino)thiazolidin-4-one] is 1090 nM.
Still for that read-out and setting: the figure for `O=C1/C(=C/c2ccc(CO)cc2)S/C(=N\c2ccccc2)N1Cc1ccco1` [22_N_M, (2Z,5Z)-5-(4-(hydroxymethyl)benzylidene)-3-((furan-2-yl)methyl)-2-(phenylimino)thiazolidin-4-one] is 1310 nM.
Still for that read-out and setting: the figure for `O=C1/C(=C/c2ccc3[nH]cnc3c2)S/C(=N\Cc2cccnc2)N1c1ccccc1` [04_S_N, (2Z,5Z)-2-((pyridin-3-yl)methylimino)-5-((1H-benzo[d]imidazol-5-yl)methylene)-3-phenylthiazolidin-4-one] is 878 nM; for `COCc1cccc(/C=C2\S/C(=N\Cc3ccc(C(C)(C)C)cc3)N(c3ccccc3)C2=O)c1` [15_R_N, (2Z,5Z)-5-(3-(methoxymethyl)benzylidene)-2-(4-tert-butylbenzylimino)-3-phenylthiazolidin-4-one] it is > 10000 nM; for `Cc1ccc(N2C(=O)/C(=C/c3ccc4c(c3)OCCO4)S/C2=N\c2ccc(F)cc2)cc1` [24_B_A, (2Z,5Z)-2-(4-fluorophenylimino)-5-((2,3-dihydrobenzo[b][1,4]dioxin-6-yl)methylene)-3-p-tolylthiazolidin-4-one] it is 176 nM.
`COc1ccc(N2C(=O)/C(=C/c3ccc(CO)cc3)S/C2=N\Cc2ccccc2)cc1` [22_C_F, (2Z,5Z)-5-(4-(hydroxymethyl)benzylidene)-2-(benzylimino)-3-(4-methoxyphenyl)thiazolidin-4-one]: the IC50 is 592 nM.
Still for that read-out and setting: the figure for `COCc1cccc(/C=C2\S/C(=N\c3ccccc3)N(c3ccccc3)C2=O)c1` [compound 15, (2Z,5Z)-5-(3-(methoxymethyl)benzylidene)-3-phenyl-2-(phenylimino)thiazolidin-4-one] is 1030 nM; for `O=C1/C(=C/c2ccc(CO)cc2)S/C(=N\Cc2ccccc2Cl)N1c1ccccc1` [22_T_N, (2Z,5Z)-2-(2-chlorobenzylimino)-5-(4-(hydroxymethyl)benzylidene)-3-phenylthiazolidin-4-one] it is > 10000 nM; for `O=C1/C(=C/c2ccc(CO)cc2)S/C(=N\c2ccccc2)N1Cc1ccccc1` [22_N_C, (2Z,5Z)-5-(4-(hydroxymethyl)benzylidene)-3-benzyl-2-(phenylimino)thiazolidin-4-one] it is 657 nM.
With `CCCCN1C(=O)/C(=C/c2ccc3[nH]cnc3c2)S/C1=N\c1ccccc1` [04_N_G, (2Z,5Z)-5-((1H-benzo[d]imidazol-5-yl)methylene)-3-butyl-2-(phenylimino)thiazolidin-4-one], the IC50 was found to be 557 nM.
On the same count and under the same terms, the result for `O=C1/C(=C/c2ccc3[nH]cnc3c2)S/C(=N\Cc2ccc(F)cc2)N1c1ccccc1` [04_P_N, (2Z,5Z)-5-((1H-benzo[d]imidazol-5-yl)methylene)-2-(4-fluorobenzylimino)-3-phenylthiazolidin-4-one] reads 1020 nM.

The test is the same for the next values; noted with them: Homo sapiens, U-937, U937 cells, final 100 nM AEA with 0.5 nM [3H]-AEA, 15 min at 37° C.; read-out: AEA uptake inhibition IC50.
As for `Cc1ccc(/N=C2\S/C(=C\c3ccc4[nH]cnc4c3)C(=O)N2c2ccccc2)nc1` [drawing 146], the IC50 was 1590 nM.
The same measure, in the same setting: the result for `C/N=C1\S/C(=C\c2ccc(OC)cc2)C(=O)N1c1ccccc1` reads 6920 nM; that for `C/N=C1\S/C(=C\c2ccc3[nH]ccc3c2)C(=O)N1c1ccccc1`, 16600 nM.
Same read-out and setting: the figure for `COc1ccc(/C=C2\S/C(=N\c3ccccc3)N(c3ccccc3)C2=O)cc1` is 2120 nM; for `COc1ccc(/N=C2\S/C(=C\c3ccc4[nH]cnc4c3)C(=O)N2c2ccccc2)cc1` [drawing 147] it is 164 nM; for `O=C1/C(=C/c2ccc3[nH]ccc3c2)S/C(=N\c2ccccc2)N1Cc1ccco1` [drawing 153] it is 879 nM.
As to `Cc1ccc(/N=C2\S/C(=C\c3ccc4[nH]ccc4c3)C(=O)N2c2ccccc2)nc1`, the IC50 stood at 2730 nM.
Still for that read-out and setting: the result for `O=C1/C(=C/c2ccc3[nH]ccc3c2)S/C(=N\c2ccccc2)N1c1ccccc1` [drawing 108] reads 731 nM.
For the compound `O=C1/C(=C/c2ccc3c(c2)OCO3)S/C(=N\c2ccccc2)N1c1ccccc1`, the half-maximal inhibitory concentration (IC50) is 3360 nM.
Regarding `COCc1cccc(/C=C2\S/C(=N\Cc3ccccc3)N(c3ccccc3)C2=O)c1` [drawing 139], the IC50 came out at 1690 nM.
Still for that read-out and setting: the result for `CCCCN1C(=O)/C(=C/c2ccccc2)S/C1=N\c1ccccc1` reads 4150 nM.
`O=C1/C(=C/c2ccc(CO)cc2)S/C(=N\c2ccccc2)N1Cc1ccco1` [drawing 157]: the IC50 was found to be 1310 nM.
Same read-out and setting: the result for `COc1ccc(/N=C2\S/C(=C\c3ccc(CO)cc3)C(=O)N2c2ccccc2)cc1` [drawing 140] reads 135 nM; that for `O=C1/C(=C/c2ccc3nccnc3c2)S/C(=N\c2ccccc2)N1c1ccccc1`, 7100 nM.
The same measure, in the same setting: the result for `CCCCN1C(=O)/C(=C/c2ccc3[nH]ccc3c2)S/C1=N\c1ccccc1` reads 677 nM.

The same test, now with this note: U937 cells, final 100 nM AEA with 0.5 nM [3H]-AEA, 15 min at 37° C.; read-out: AEA uptake IC50.
Regarding `CCCCCCCCCCCCN1C(=O)/C(=C/c2ccc(CO)cc2)S/C1=N\c1ccc(F)cc1` [23_A_V, (2Z,5Z)-5-(4-(hydroxymethyl)benzylidene)-2-(4-fluorophenylimino)-3-dodecylthiazolidin-4-one], the IC50 was 10500 nM.
Still for that read-out and setting: the figure for `COCc1cccc(/C=C2\S/C(=N\Cc3ccccc3)N(c3ccccc3)C2=O)c1` [15_C_N, (2Z,5Z)-5-(3-(methoxymethyl)benzylidene)-2-(benzylimino)-3-phenylthiazolidin-4-] is 1690 nM.
For `O=C1/C(=C/c2ccc(CO)cc2)S/C(=N\c2ccccc2)N1CCCc1ccccc1` [22_N_K, (2Z,5Z)-5-(4-(hydroxymethyl)benzylidene)-2-(phenylimino)-3-(3-phenylpropyl)thiazolidin-4-], the IC50 was 861 nM.

(Values after US10155754B2, “Substituted 2-imino-1,3-thiazolidin-4-ones as N-arachidonoylethanolamine cellular uptake inhibitors” (UNIVERSITAT BERN, priority 2014, dated 2018).)
